In brackets after ≈: the same amount, converted by molar mass. Activity calls are given as the source filed them. No cut-off for these calls is given here.
How the values were obtained:
[1] = Inhibition of trypsin
[2] = Inhibition of chymotrypsin at 45 ug/mL

IC50 [1]: 45 µg/mL (≈ 56.8 µM) | Activity [2]: inactive
SMILES: CC[C@H](C)[C@H](NC(=O)N[C@@H]1CCCCNC(=O)[C@H](Cc2ccccc2)NC(=O)[C@H](C)N(C)C(=O)[C@H](CCc2ccccc2)NC(=O)[C@H]([C@@H](C)CC)NC1=O)C(=O)O [Schizopeptin 791]

Reference: ChEMBL document CHEMBL1150616, “Schizopeptin 791, a new anabeanopeptin-like cyclic peptide from the cyanobacterium Schizothrix sp” (J Nat Prod, 2002)
